Experimental data published in patent US8828928B2, “Amphiphilic peptides and peptide particles” (President and Fellows of Harvard College, priority 2011, dated 2014).

Key:
[1] = Solubility of the peptides in water and organic solvents; type: physicochemical
[2] = Stability of nucleic acid-containing peptide particles in water and at physiological salt strength; type: physicochemical
Source text: It should be noted that a mixture of CD3 peptides and nucleic acid molecules can self-assemble to form stable particles in pure water; however, they are generally not stable and dissolve, responding to increasing salt strengths and higher temperatures.
Accordingly, in some embodiments, a mixture of fully-acetylated amphiphilic peptides (e.g., CD3ac peptides), partially-acetylated or non-acetylated amphiphilic peptides (e.g., CD3 peptides) and nucleic acid molecules can be prepared to form stable peptide particles containing nucleic acid molecules (e.g., DNA or RNA including siRNA). […] It was determined that the presence of CD3ac peptides stabilizes ssDNA-containing peptide particles at physiological conditions. All the three components co-precipitated to form ssDNA-containing peptide particles that were stable at the corresponding salt strength.

[3] = Size of CD3ac beads by SEM and dynamic light scattering; type: physicochemical; details: SEM and DLS; initially dissolved CD3ac 123×10^−6 M
Experimental: Scanning electron microscopy (SEM) was carried out on a Hitachi S-4800. SEM sample holders were cooled to −196° C. before a drop of the bead suspension was directly applied to the cold metal surface. The frozen sample on the plate was subsequently lyophilized, sputtered with platinum and analyzed.
Dynamic light scattering was measured on an ALV/CGS-8F platform based goniometer system equipped with an ALV/-5000/E correlator and an Argon-Ion laser with a wavelength of […] (35 mW) at scattering angles between 30° and 150°. An ALV-5000/E correlator calculates the photon intensity autocorrelation function g2(t). All experiments were performed at T=293 K and evaluated by second order cumulant fit (considering previously determined spherical particle shape by SEM). Polydispersities were determined by the contin-algorithm at all angles and never exceeded 0.11. […] For both angular and concentration dependence, a hydrodynamic radius was calculated from the Stokes-formula
[formula] where rh is the hydrodynamic radius of spherical particles, D is the diffusion constant, kB is the Boltzmann constant, T is the absolute temperature and is the viscosity of water. A graph of 1/rh versus angle (concentration) was plotted and the hydrodynamic radius (rh0) was calculated by extrapolating both concentration and angle measurements to zero. […]

[4] = Estimating bead volume and density of CD3ac precipitates; type: physicochemical
Experimental: In order to estimate the density of CD3ac precipitates, beads (307.5×10^−6 M CD3ac starting concentration) were prepared large enough to exceed the diffraction limit of visible light. A low concentration of RB (10×10^−6 M) was co-precipitated to allow an estimate of the bead diameter by confocal fluorescence microscopy (1.35 μm) and facilitate counting on a hemacytometer (Hausser Scientific). An average of 72 beads were counted in an observed cell volume of 250,000 μm^3 that equals a bead volume fraction of 3.71×10^−4. A solution of 50 μL 307.5×10^−6M CD3ac thus contains a total bead volume of […] and the density of CD3ac can be determined (ρCD3ac≈1.35 g/cm^3). The logarithmic partition coefficient of RB in an aqueous solution of CD3ac beads was calculated according to […]

[5] = Particle diameter and corona thickness by negative staining TEM; type: physicochemical
Experimental: PNPs were assembled by mixing stock solutions of CD3ac, Tfn-AF568 and Flutax-2 to yield final concentrations of 123 μM CD3ac, 6 μM Flutax-2 and 10 μg/mL Tfn-AF568 in H2O:EtOH (1:1, v/v). Emulsification was induced by a first dilution step (1:1, H2O) followed by an equilibration period of 15 minutes before the ethanol content was further reduced to […] by the second dilution step (1:1, H2O). 50 μL aliquots of the resulting suspension were applied to 24-well sitting drop crystallization plates (Hampton Research, Cryschem) and counter-evaporated 3 times against 1 mL H2O during six hours.
PNP samples were prepared as described above. 5 μL of PNPs suspended in H2O were applied to a carbon film coated copper grid (400 square mesh, Electron Microscopy Sciences) and dried. The sample was stained with 10 μL 1% uranyl acetate during one minute. Excess stain was removed with a filter paper and subsequently applied to a Tecnai G^2 Spirit BioTWIN.

[6] = test system: CHO cells; test: Release of encapsulated Flutax-2 into the cytosol of CHO cells; type: cell-based, Chinese hamster; details: 24 hours, 0.67 μM Flutax-2
Experimental: To assess whether binding and internalization of PNPs can result in the selective import of small molecule cargo, the release of encapsulated Flutax-2 into cells was analyzed 24 hours post addition of PNPFlutax-2^Tfn-AF568 into the cells (FIGS. 13A-13I). Flutax-2 is an Oregon Green (OG) modified derivative of paclitaxel(19), a mitotic inhibitor applied in cancer therapy (20). Unlike its unlabeled form, Flutax-2 is charged and water-soluble at the applied concentration and does consequently not permeate cell membranes. Thus, it was used a model compound to investigate efficiency and specificity of small molecule delivery by PNPs to the cytosol. […] Flutax-2 emission in the cytosol was averaged to quantify the amount of delivered compound into the cells.
CHO cell lines were grown in F12:DMEM 1:1 (Cellgro, 10-090) plus 10% fetal bovine serum (Gibco). […] Samples were fixed with 3% paraformaldehyde (Sigma, P6148) in PBS, mounted on glass slides using fluorescent mounting medium (Dako, 53023) and analyzed within 24 hours.
Fixed cells were analyzed on a Nikon Ti inverted microscope equipped with 60× Plan Apo NA 1.4 objective lens. DAPI fluorescence was excited with a 360/40 filter and collected with a 460/50 emission filter. Oregon Green fluorescence was excited with a 360/40 and collected with a 480/40 emission filter. […]

CC(C)C[C@@H](NC(=O)[C@H](Cc1c[nH]c2ccccc12)NC(=O)[C@@H](CC(C)C)NC(=O)[C@H](Cc1c[nH]c2ccccc12)NC(=O)[C@@H](CC(C)C)NC(=O)[C@H](Cc1c[nH]c2ccccc12)NC(=O)[C@@H](N)CCCCN)C(=O)N[C@@H](Cc1c[nH]c2ccccc12)C(N)=O (racemic) [CD1, H-LK-LW-DL-LW-DL-LW-DL-LW-NH2]
solubility in water [1]: water soluble

CC(C)C[C@@H](NC(=O)[C@H](Cc1c[nH]c2ccccc12)NC(=O)[C@@H](CC(C)C)NC(=O)[C@H](Cc1c[nH]c2ccccc12)NC(=O)[C@@H](CC(C)C)NC(=O)[C@H](Cc1c[nH]c2ccccc12)NC(=O)[C@H](CCCCN)NC(=O)[C@@H](N)CCCCN)C(=O)N[C@@H](Cc1c[nH]c2ccccc12)C(N)=O (racemic) [CD2, H-LK-LK-LW-DL-LW-DL-LW-DL-LW-NH2]
solubility in water [1]: water soluble

CC(C)C[C@@H](NC(=O)[C@H](Cc1c[nH]c2ccccc12)NC(=O)[C@@H](CC(C)C)NC(=O)[C@H](Cc1c[nH]c2ccccc12)NC(=O)[C@@H](CC(C)C)NC(=O)[C@H](Cc1c[nH]c2ccccc12)NC(=O)[C@H](CCCCN)NC(=O)[C@H](CCCCN)NC(=O)[C@@H](N)CCCCN)C(=O)N[C@@H](Cc1c[nH]c2ccccc12)C(N)=O (racemic) [CD3, H-LK-LK-LK-LW-DL-LW-DL-LW-DL-LW-NH2]
solubility in water [1]: water soluble | particle stability at increasing / physiological salt strength [2]: not stable | particle stability in pure water [2]: stable

CC(=O)NCCCC[C@H](NC(C)=O)C(=O)N[C@@H](CCCCNC(C)=O)C(=O)N[C@@H](CCCCNC(C)=O)C(=O)N[C@@H](Cc1c[nH]c2ccccc12)C(=O)N[C@H](CC(C)C)C(=O)N[C@@H](Cc1c[nH]c2ccccc12)C(=O)N[C@H](CC(C)C)C(=O)N[C@@H](Cc1c[nH]c2ccccc12)C(=O)N[C@H](CC(C)C)C(=O)N[C@@H](Cc1c[nH]c2ccccc12)C(N)=O (racemic) [CD3ac, Ac-LK(Ac)-LK(Ac)-LK(Ac)-LW-DL-LW-DL-LW-DL-LW-NH2]
particle radius [3]: about 260 nm | bead diameter ([4]; 307.5×10^−6 M CD3ac starting concentration, 10×10^−6 M RB, confocal fluorescence microscopy): 1.35 μm | density of CD3ac precipitates (ρCD3ac) ([4]; from bead count and bead volume fraction): ≈ 1.35 g/cm^3 | thickness of the protein corona [5]: 9.0+/−2.1 nm | average particle diameter ([5]; assembled in the absence of Tfn-AF568): 100 nm | average particle diameter ([5]; assembled in the presence of Tfn-AF568, excluding corona): 51 nm | solubility in water [1]: insoluble | solubility in organic solvents ([1]; EtOH, iPrOH, DMSO, DMF, MeCN): readily dissolves

CC(C)C[C@@H](NC(=O)[C@H](Cc1c[nH]c2ccccc12)NC(=O)[C@@H](CC(C)C)NC(=O)[C@H](Cc1c[nH]c2ccccc12)NC(=O)[C@@H](CC(C)C)NC(=O)[C@H](Cc1c[nH]c2ccccc12)NC(=O)[C@H](CCCCN)NC(=O)[C@H](CCCCN)NC(=O)[C@H](CCCCN)NC(=O)[C@@H](N)CCCCN)C(=O)N[C@@H](Cc1c[nH]c2ccccc12)C(N)=O (racemic) [CD4, H-LK-LK-LK-LK-LW-DL-LW-DL-LW-DL-LW-NH2]
solubility in water [1]: water soluble

Flutax-2
Flutax-2 emission in the cytosol [6]: could not be detected
